Columns and labels:
Test in all cases: relative viability (nuclei count vs DMSO), 5 days (fraction); higher = more cells survive
[1] = system: 201T
Procedure, shortened: (§1)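 Relative viability equals treated-well nuclei counts divided by vehicle-well nuclei counts. Counts came from 4× images of lung cancer cell lines grown in 1536-well plates for 5 days after pin-tool dosing on the day after seeding. Dosing used one drug alone or a fixed anchor-drug dose plus five library-drug doses (not always all listed) in √10 steps, and values are medians of duplicate plates.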

[2] = system: A-427
Procedure, shortened: as §1

[3] = system: BEN
Procedure, shortened: as §1

[4] = system: COR-L 105
Procedure, shortened: as §1

[5] = system: COR-L23
Procedure, shortened: as §1

[6] = system: EKVX
Procedure, shortened: as §1

[7] = system: EMC-BAC-2
Procedure, shortened: as §1

[8] = system: HCC-15
Procedure, shortened: as §1

[9] = system: HCC-366
Procedure, shortened: as §1

[10] = system: HCC-78
Procedure, shortened: as §1

[11] = system: HOP-62
Procedure, shortened: as §1

[12] = system: LK-2
Procedure, shortened: as §1

[13] = system: NCI-H1563
Procedure, shortened: as §1

[14] = system: NCI-H1734
Procedure, shortened: as §1

[15] = system: NCI-H1915
Procedure, shortened: as §1

[16] = system: NCI-H1993
Procedure, shortened: as §1

[17] = system: NCI-H2405
Procedure, shortened: as §1

[18] = system: NCI-H460
Procedure, shortened: as §1

[19] = system: NCI-H522
Procedure, shortened: as §1

[20] = system: NCI-H647
Procedure, shortened: as §1

[21] = system: NCI-H661
Procedure, shortened: as §1

[22] = system: PC-14
Procedure, shortened: as §1

[23] = system: SK-MES-1
Procedure, shortened: as §1

`CN1CCN(CCOc2cc(OC3CCOCC3)c3c(Nc4c(Cl)ccc5c4OCO5)ncnc3c2)CC1` [Saracatinib] + N=C(N)NC(=N)NCCc1ccccc1 [Phenformin] (partner 250 µM) gave a relative viability ([1]; first compound 0.02 µM) of 0.391, a relative viability ([1]; first compound 0.2 µM) of 0.415 and a relative viability ([1]; first compound 0.6325 µM) of 0.422. It also gave a relative viability ([1]; first compound 2 µM) of 0.369, a relative viability ([2]; first compound 0.02 µM) of 0.352 and a relative viability ([2]; first compound 0.2 µM) of 0.273. The relative viability ([2]; first compound 0.6325 µM) was 0.281, the relative viability ([2]; first compound 2 µM) was 0.285 and the relative viability ([3]; first compound 0.02 µM) was 0.292. It also gave a relative viability ([3]; first compound 0.6325 µM) of 0.253, a relative viability ([3]; first compound 2 µM) of 0.209 and a relative viability ([4]; first compound 0.02 µM) of 0.586. It also gave a relative viability ([4]; first compound 0.2 µM) of 0.532, a relative viability ([4]; first compound 0.6325 µM) of 0.438 and a relative viability ([4]; first compound 2 µM) of 0.256. The relative viability ([5]; first compound 0.02 µM) was 0.466, the relative viability ([5]; first compound 0.2 µM) was 0.393 and the relative viability ([5]; first compound 0.6325 µM) was 0.481. It also gave a relative viability ([5]; first compound 2 µM) of 0.449, a relative viability ([6]; first compound 0.02 µM) of 0.26 and a relative viability ([6]; first compound 0.6325 µM) of 0.211. It also gave a relative viability ([6]; first compound 2 µM) of 0.189, a relative viability ([7]; first compound 0.02 µM) of 0.521 and a relative viability ([7]; first compound 0.2 µM) of 0.432. It also gave a relative viability ([7]; first compound 0.6325 µM) of 0.418, a relative viability ([7]; first compound 2 µM) of 0.35 and a relative viability ([8]; first compound 0.02 µM) of 0.487. It also gave a relative viability ([8]; first compound 0.2 µM) of 0.402, a relative viability ([8]; first compound 0.6325 µM) of 0.417 and a relative viability ([8]; first compound 2 µM) of 0.329. The relative viability ([9]; first compound 0.02 µM) was 0.694, the relative viability ([9]; first compound 0.6325 µM) was 0.599 and the relative viability ([9]; first compound 2 µM) was 0.346. The relative viability ([10]; first compound 0.02 µM) was 0.704, the relative viability ([10]; first compound 0.6325 µM) was 0.772 and the relative viability ([10]; first compound 2 µM) was 0.554. It also gave a relative viability ([11]; first compound 0.02 µM) of 0.661, a relative viability ([11]; first compound 0.2 µM) of 0.629 and a relative viability ([11]; first compound 0.6325 µM) of 0.593. For the same molecule, the relative viability ([11]; first compound 2 µM) was 0.623, the relative viability ([12]; first compound 0.02 µM) was 0.545 and the relative viability ([12]; first compound 0.2 µM) was 0.368. The relative viability ([12]; first compound 0.6325 µM) was 0.313, the relative viability ([12]; first compound 2 µM) was 0.314 and the relative viability ([13]; first compound 0.02 µM) was 0.615. It also gave a relative viability ([13]; first compound 0.2 µM) of 0.63, a relative viability ([13]; first compound 0.6325 µM) of 0.603 and a relative viability ([13]; first compound 2 µM) of 0.572. For the same molecule, the relative viability ([14]; first compound 0.02 µM) was 0.375, the relative viability ([14]; first compound 0.6325 µM) was 0.375 and the relative viability ([14]; first compound 2 µM) was 0.308. For the same molecule, the relative viability ([15]; first compound 0.02 µM) was 0.374, the relative viability ([15]; first compound 0.2 µM) was 0.333 and the relative viability ([15]; first compound 0.6325 µM) was 0.364. It also gave a relative viability ([15]; first compound 2 µM) of 0.333, a relative viability ([16]; first compound 0.02 µM) of 0.524 and a relative viability ([16]; first compound 0.2 µM) of 0.529. It also gave a relative viability ([16]; first compound 0.6325 µM) of 0.512, a relative viability ([16]; first compound 2 µM) of 0.555 and a relative viability ([17]; first compound 0.02 µM) of 0.406. For the same molecule, the relative viability ([17]; first compound 0.2 µM) was 0.328, the relative viability ([17]; first compound 0.6325 µM) was 0.304 and the relative viability ([17]; first compound 2 µM) was 0.185. The relative viability ([18]; first compound 0.02 µM) was 0.534, the relative viability ([18]; first compound 0.2 µM) was 0.382 and the relative viability ([18]; first compound 0.6325 µM) was 0.491. It also gave a relative viability ([18]; first compound 2 µM) of 0.435, a relative viability ([19]; first compound 0.02 µM) of 0.553 and a relative viability ([19]; first compound 0.6325 µM) of 0.639. For the same molecule, the relative viability ([19]; first compound 2 µM) was 0.612, the relative viability ([20]; first compound 0.02 µM) was 0.584 and the relative viability ([20]; first compound 0.2 µM) was 0.362. The relative viability ([20]; first compound 0.6325 µM) was 0.5, the relative viability ([20]; first compound 2 µM) was 0.308 and the relative viability ([21]; first compound 0.02 µM) was 0.282. For the same molecule, the relative viability ([21]; first compound 0.2 µM) was 0.271, the relative viability ([21]; first compound 0.6325 µM) was 0.233 and the relative viability ([21]; first compound 2 µM) was 0.236. For the same molecule, the relative viability ([22]; first compound 0.02 µM) was 0.646, the relative viability ([22]; first compound 0.2 µM) was 0.441 and the relative viability ([22]; first compound 0.6325 µM) was 0.256. It also gave a relative viability ([22]; first compound 2 µM) of 0.124, a relative viability ([23]; first compound 0.02 µM) of 0.65 and a relative viability ([23]; first compound 0.2 µM) of 0.613. It also gave a relative viability ([23]; first compound 0.6325 µM) of 0.613 and a relative viability ([23]; first compound 2 µM) of 0.634.

Reference: the supplement of paper PMC10307832
